Source: US11419806B2, “Prebiotic oral care methods using a saccharide” (Colgate-Palmolive Company, priority 2013, dated 2022)

What was measured:
Type in all cases: cell-based
T. forsythia = assay: Twenty-four hour biofilm growth (crystal violet)
Experimental: (§1) The increase in biofilm formation of the tested bacteria in response to selected saccharides (D-turanose, D-lactitol, myo-inositol, and N-acetyl-D-mannosamine) was investigated by setting up biofilm growth assays in a nutritionally rich medium (brain heart infusion broth (BHI), Oxoid), over 24 hours. Late exponential growth phase liquid cultures were prepared by transferring the respective bacterium from blood agar plates to BHI and overnight incubation at 37° C. in an anaerobic atmosphere for A. viscosus, V. parvula, P. gingivalis, P. intermedia, T. forsythia, A. naeslundii, and C. sputigena, and in a 5% CO2 environment for S. salivarius, S. sanguinis, S. mitis, A. actinomycetemcomitans, S. mutans, and S. gordonii. Overnight cultures were transferred to BHI and adjusted to a concentration of 1×10^7 CFU/ml by measuring the optical density at 600 nm (OD600) (BioRad SmartSpec 3000). For each strain, 200 μl of the bacterial suspension was added to a 96-well plate containing 20 μl of the respective saccharides. Final concentrations of the saccharides were set to 5, 10, 20 and 25 μmol/ml. […] Additionally, for each bacterium tested, a background control, to correct for background staining, was added. This background control contained the bacterium tested and 0.03 weight % chlorhexidine, as an antiseptic. Plates were incubated as previously described. After 24 hrs the supernatant was removed from the wells of the plates. The wells were washed twice with 1×100 μL PBS (phosphate buffered saline), fixed for 20 minutes with 96% vol. ethanol (96% vol. solution in water) and the biofilm retained at the bottom of the wells was stained with 1 weight % crystal violet (1 weight % solution in water). The bound dye was dissolved with 5% vol. acetic acid (5% vol. solution in water). Quantification of the stained biofilm was performed by measuring the absorbance at 630 nm using a Multiskan Ascent microplate reader (Thermo Scientific).
(§2) The experiment was carried out on three different days (thus providing 3 biological replicas) and each day the experiment was carried out in quadruple (thus providing 4 technical replicas) for each combination of bacterium with saccharide and for each control. For each day and for each combination, the average (mean) of the values obtained (as detailed above) for the four technical replicas was calculated to provide a single value for each combination on each day. The values shown in Tables 7a, 7b, 8a, 8b, below, are the average (mean) of the three single values obtained for each combination of bacterium with saccharide.

P. intermedia = assay: Twenty-four hour biofilm growth (crystal violet)
Experimental: as §1, §2

A. actinomycetemcomitans = assay: Twenty-four hour biofilm growth (crystal violet)
Experimental: as §1, §2

C. sputigena = assay: Twenty-four hour biofilm growth (crystal violet)
Experimental: as §1, §2

A. viscosus = assay: Twenty-four hour biofilm growth (crystal violet)
Experimental: as §1, §2

V. parvula = assay: Twenty-four hour biofilm growth (crystal violet)
Experimental: as §1, §2

S. mutans = assay: Twenty-four hour biofilm growth (crystal violet); details: S mutans
Experimental: as §1, §2

A. naeslundii = assay: Twenty-four hour biofilm growth (crystal violet)
Experimental: as §1, §2

S. gordonii = assay: Twenty-four hour biofilm growth (crystal violet)
Experimental: as §1, §2

P. gingivalis = assay: Twenty-four hour biofilm growth (crystal violet)
Experimental: as §1, §2

[1] = test system: beneficial oral bacteria and pathogenic oral bacteria; assay: Twenty-four hour optical density, overall prebiotic assessment; details: concentrations of 5, 10, 20 and 25 μmol/ml
Text: Substrates that were able to increase the growth (or maximal growth density or extent of growth) of at least one of the above beneficial bacteria while not or only minimally increasing the growth (or maximal growth density) of the pathogenic bacteria are considered to be prebiotic compounds.
The extent of growth of the tested bacteria in response to selected saccharides (myo-inositol, D-lactitol, D-turanose and N-acetyl-D-mannosamine) was investigated by setting up growth curves in a nutritionally rich medium (brain heart infusion broth (BHI), Oxoid), over 24 hours. Late exponential growth phase liquid cultures were prepared by transferring the respective bacterium from blood agar plates to BHI and overnight incubation at 37° C. in an anaerobic atmosphere for A. viscosus, V. parvula, F. nucleatum, P. gingivalis, P. intermedia, T. forsythia, A. naeslundii, and C. sputigena, and in a 5% CO2 environment for S. salivarius, S. sanguinis, S. mitis, A. actinomycetemcomitans, S. mutans, S. sobrinus and S. gordonii. […]
For each combination of bacterium/saccharide, and for each of their respective controls (i.e. the particular bacterium in the nutritionally rich medium with no saccharide), the optical density was measured at 630 nm (OD630) at 0 h and 24 h (Thermo Scientific Multiskan Ascent). Additionally, the OD630 for combinations of bacterium/saccharides grown in a 5% CO2 environment were also measured every hour between 0 h and 9 h.
as §2, with “replicas) and on each day” for “replicas) and each day”, “each day. […]” for “each day. The values shown in Tables 7a, 7b, 8a, 8b, below, are the average (mean) of the three single values obtained for each combination of bacterium with saccharide.”

SMILES: CC(=O)N[C@H](C=O)[C@@H](O)[C@H](O)[C@H](O)CO [N-acetyl-D-mannosamine, 2-acetamido-2-deoxy-D-mannose]
- biofilm growth: OD 630 nm at 24 hrs divided by OD of control (control = 1) (T. forsythia; 5 μmol/ml): 0.6028
- biofilm growth: OD 630 nm at 24 hrs divided by OD of control (control = 1) (T. forsythia; 10 μmol/ml): 0.9745
- biofilm growth: OD 630 nm at 24 hrs divided by OD of control (control = 1) (T. forsythia; 20 μmol/ml): 0.4562
- biofilm growth: OD 630 nm at 24 hrs divided by OD of control (control = 1) (T. forsythia; 25 μmol/ml): 0.5433
- biofilm growth: OD 630 nm at 24 hrs divided by OD of control (control = 1) (P. intermedia; 5 μmol/ml): 1.1437
- biofilm growth: OD 630 nm at 24 hrs divided by OD of control (control = 1) (P. intermedia; 10 μmol/ml): 1.5179
- biofilm growth: OD 630 nm at 24 hrs divided by OD of control (control = 1) (P. intermedia; 20 μmol/ml): 1.0689
- biofilm growth: OD 630 nm at 24 hrs divided by OD of control (control = 1) (P. intermedia; 25 μmol/ml): 1.2252
- biofilm growth: OD 630 nm at 24 hrs divided by OD of control (control = 1) (A. actinomycetemcomitans; 5 μmol/ml): 0.9519
- biofilm growth: OD 630 nm at 24 hrs divided by OD of control (control = 1) (A. actinomycetemcomitans; 10 μmol/ml): 1.0569
- biofilm growth: OD 630 nm at 24 hrs divided by OD of control (control = 1) (A. actinomycetemcomitans; 20 μmol/ml): 0.6532
- biofilm growth: OD 630 nm at 24 hrs divided by OD of control (control = 1) (A. actinomycetemcomitans; 25 μmol/ml): 0.7158
- biofilm growth: OD 630 nm at 24 hrs divided by OD of control (control = 1) (C. sputigena; 5 μmol/ml): 0.9108
- biofilm growth: OD 630 nm at 24 hrs divided by OD of control (control = 1) (C. sputigena; 10 μmol/ml): 0.9323
- biofilm growth: OD 630 nm at 24 hrs divided by OD of control (control = 1) (C. sputigena; 20 μmol/ml): 0.8871
- biofilm growth: OD 630 nm at 24 hrs divided by OD of control (control = 1) (C. sputigena; 25 μmol/ml): 0.8822
- biofilm growth: OD 630 nm at 24 hrs divided by OD of control (control = 1) (A. viscosus; 5 μmol/ml): 0.8126
- biofilm growth: OD 630 nm at 24 hrs divided by OD of control (control = 1) (A. viscosus; 10 μmol/ml): 0.9165
- biofilm growth: OD 630 nm at 24 hrs divided by OD of control (control = 1) (A. viscosus; 20 μmol/ml): 0.5093
- biofilm growth: OD 630 nm at 24 hrs divided by OD of control (control = 1) (A. viscosus; 25 μmol/ml): 0.6492
- biofilm growth: OD 630 nm at 24 hrs divided by OD of control (control = 1) (V. parvula; 5 μmol/ml): 0.3811
- biofilm growth: OD 630 nm at 24 hrs divided by OD of control (control = 1) (V. parvula; 10 μmol/ml): 1.0958
- biofilm growth: OD 630 nm at 24 hrs divided by OD of control (control = 1) (V. parvula; 20 μmol/ml): 0.1297
- biofilm growth: OD 630 nm at 24 hrs divided by OD of control (control = 1) (V. parvula; 25 μmol/ml): 0.3718
- biofilm growth: OD 630 nm at 24 hrs divided by OD of control (control = 1) (S. mutans; 5 μmol/ml): 0.8572
- biofilm growth: OD 630 nm at 24 hrs divided by OD of control (control = 1) (S. mutans; 10 μmol/ml): 0.8329
- biofilm growth: OD 630 nm at 24 hrs divided by OD of control (control = 1) (S. mutans; 20 μmol/ml): 0.7015
- biofilm growth: OD 630 nm at 24 hrs divided by OD of control (control = 1) (S. mutans; 25 μmol/ml): 0.6922
- biofilm growth: OD 630 nm at 24 hrs divided by OD of control (control = 1) (A. naeslundii; 5 μmol/ml): 1.3056
- biofilm growth: OD 630 nm at 24 hrs divided by OD of control (control = 1) (A. naeslundii; 10 μmol/ml): 1.4302
- biofilm growth: OD 630 nm at 24 hrs divided by OD of control (control = 1) (A. naeslundii; 20 μmol/ml): 1.1823
- biofilm growth: OD 630 nm at 24 hrs divided by OD of control (control = 1) (A. naeslundii; 25 μmol/ml): 1.2220
- biofilm growth: OD 630 nm at 24 hrs divided by OD of control (control = 1) (S. gordonii; 5 μmol/ml): 0.7178
- biofilm growth: OD 630 nm at 24 hrs divided by OD of control (control = 1) (S. gordonii; 10 μmol/ml): 1.0041
- biofilm growth: OD 630 nm at 24 hrs divided by OD of control (control = 1) (S. gordonii; 20 μmol/ml): 0.5487
- biofilm growth: OD 630 nm at 24 hrs divided by OD of control (control = 1) (S. gordonii; 25 μmol/ml): 0.6746
- biofilm growth: OD 630 nm at 24 hrs divided by OD of control (control = 1) (P. gingivalis; 5 μmol/ml): 0.6683
- biofilm growth: OD 630 nm at 24 hrs divided by OD of control (control = 1) (P. gingivalis; 10 μmol/ml): 0.8031
- biofilm growth: OD 630 nm at 24 hrs divided by OD of control (control = 1) (P. gingivalis; 20 μmol/ml): 0.7270
- biofilm growth: OD 630 nm at 24 hrs divided by OD of control (control = 1) (P. gingivalis; 25 μmol/ml): 0.8345
- prebiotic effects (extent of growth, threshold value 1.25) [1]: exhibited prebiotic effects
